Counter-ions that a name gives are not always drawn.

Experimental findings from the supplement of paper PMC12317010 are described below.

This data set in a line: collision cross section in nitrogen (drift tube, single-field); higher = larger gas-phase ion size.
[1] abbreviates: ion type: [M+H], ion source: APCI, ion mode: Positive.
The mark [2] stands for this setting: ion type: [M+Na], ion source: ESI, ion mode: Positive.
[3] abbreviates: ion type: [M+], ion source: APCI, ion mode: Positive.
Where [4] appears, read: ion type: [M+H], ion source: ESI, ion mode: Positive.
Where [5] appears, read: ion type: [M-H], ion source: ESI, ion mode: Negative.
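Note: chemical standards at 10 µM analysed by drift tube IMS-QTOF MS in about 3.95 torr nitrogen, mean of duplicate injections differing ≤1%, mass error below 10 ppm.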

In the case of `COCCCOc1ccnc(CS(=O)c2nc3ccccc3[nH]2)c1C` (stereo not given) [Rabeprazole sodium], the “collision cross section in nitrogen” value is on record as 189.4 Å² under setting [1], 179.5 Å² under setting [2] and 187.8 Å² under setting [3].

On to `O=P1(NCCCl)OCCCN1CCCl` (stereo not given) [Ifosfamide], for which the “collision cross section in nitrogen” value is on record as 148.1 Å² under setting [1], 148.8 Å² under setting [4] and 158.1 Å² under setting [2].

For `CC1(C)CCC(=Cc2ccc(Cl)cc2)C1(O)Cn1cncn1` (stereo not given) [Triticonazole], the “collision cross section in nitrogen” value came out at 181.7 Å² under setting [1], 180.6 Å² under setting [4] and 189 Å² under setting [2].

Turning to `Cc1cccc(O)c1C` [2,3-Dimethylphenol], under setting [5], the “collision cross section in nitrogen” value is 126.6 Å². Take `Nc1ccc2cc(S(=O)(=O)O)cc(O)c2c1N=Nc1ccccc1C(F)(F)F` [Acid Red 337]: the “collision cross section in nitrogen” value worked out at 191.7 Å² under setting [4] and 195.6 Å² under setting [5]. With `CC(C)(C)c1n[nH]c(=O)n(N)c1=O` [Diketometribuzin], under setting [5], the “collision cross section in nitrogen” value is listed as 139.3 Å². On the same count and under the same terms, under `O=[N+]([O-])c1cc([N+](=O)[O-])c2ccccc2c1` [1,3-Dinitronaphthalene] stands 138.9 Å²; under `Cc1ccc(O)cc1C` [3,4-Dimethylphenol], 128.7 Å². For the compound `CCCCCCC(C)Nc1ccc(Nc2ccccc2)cc1` (stereo not given) [N-(1-Methylheptyl)-N'-phenyl-1,4-benzenediamine], the “collision cross section in nitrogen” value under setting [2] is 190 Å². `COC(=O)[C@@H](C)Oc1ccc(Oc2ncc(C(F)(F)F)cc2Cl)cc1` [Haloxyfop-P-methyl]: the “collision cross section in nitrogen” value runs as follows: under setting [4], 185.1 Å²; under setting [2], 186.4 Å².

In the case of `c1cc(C(c2ccc(OCC3CO3)cc2)c2ccc(OCC3CO3)cc2)ccc1OCC1CO1` (stereo not given), the “collision cross section in nitrogen” value under setting [2] is 199.3 Å².

For the compound `Cc1ccc(S(N)(=O)=O)cc1` [4-Toluenesulfonamide], the “collision cross section in nitrogen” value under setting [5] was found to be 136.3 Å². Same read-out and setting: under `Cc1ccc(N/N=c2\c(=O)cc/c(=N/Nc3ccc(S(=O)(=O)O)cc3)c2=O)c(C)c1` [C.I. Acid Orange 24, monosodium salt] stands 221 Å². With `CCCCCCCCCCCC(=O)N(C)CC(=O)O` [Glycine, N-methyl-N-(1-oxododecyl)-, sodium salt], the “collision cross section in nitrogen” value under setting [2] is 175.8 Å² and the “collision cross section in nitrogen” value under setting [5] worked out at 169.5 Å².

Turning to `COCCOCCOCCOCCOCCO` [3,6,9,12,15-Pentaoxahexadecanol], the “collision cross section in nitrogen” value by setting is: under setting [1], 151.8 Å²; under setting [2], 153.3 Å².

In the case of `CSc1ccc(Oc2ccc(S(N)(=O)=O)cc2CN(C)C)cc1C`, the “collision cross section in nitrogen” value runs as follows: under setting [1], 196.5 Å²; under setting [4], 195.7 Å²; under setting [2], 208.1 Å²; under setting [5], 196.9 Å². In the case of `COP(=O)(CCC(=O)NCO)OC` [Dimethyl (3-((hydroxymethyl)amino)-3-oxopropyl)phosphonate], the “collision cross section in nitrogen” value under setting [2] was 144 Å². Take `CCCCC(=O)O[C@]1(C(=O)CO)[C@@H](C)C[C@H]2[C@@H]3CCC4=CC(=O)C=C[C@]4(C)[C@@]3(F)[C@@H](O)C[C@@]21C` [Betamethasone valerate]: the “collision cross section in nitrogen” value under setting [5] was 215.5 Å². On to `CC(=O)CC(=O)Nc1ccc(S(=O)(=O)O)cc1` [Potassium 4-acetoacetylaminobenzenesulphonate], for which the “collision cross section in nitrogen” value under setting [5] is on record as 159.1 Å². Turning to `CCCCCCCCCCCCN` [Dodecylamine hydrochloride], the “collision cross section in nitrogen” value under setting [4] is given as 164 Å². The same measure, in the same setting: the result for `CCCCCCCCCCCCCN1CC(C)OC(C)C1` (stereo not given) [2,6-Dimethyl-4-tridecylmorpholine] reads 183.5 Å².

On to `COc1ccc(Nc2ccccc2)c(C)c1` [4-Methoxy-2-methyl-N-phenylaniline], for which the “collision cross section in nitrogen” value under setting [1] came out at 150.5 Å², the “collision cross section in nitrogen” value under setting [4] came out at 150.5 Å² and the “collision cross section in nitrogen” value under setting [3] is 148.1 Å². For `C[N+](C)(C)CC1CO1` (stereo not given) [Glycidyl trimethylammonium chloride], the “collision cross section in nitrogen” value (ion source: ESI, ion mode: Positive, ion type: [M]+ (permanent cation)) is listed as 120.7 Å². On to `COc1ccc(NC(C)=O)cc1N` [3'-Amino-4'-methoxyacetanilide], for which the “collision cross section in nitrogen” value runs as follows: under setting [1], 137.3 Å²; under setting [4], 137.2 Å². As for `Cc1cc(OC(=O)N(C)C)nn1C(=O)N(C)C` [Dimetilan], the “collision cross section in nitrogen” value is listed as 152.5 Å² under setting [1], 153.1 Å² under setting [4] and 157.9 Å² under setting [2]. With `O=C(Oc1ccc(Br)cc1)N1CCN2CCC1CC2` [4-Bromophenyl 1,4-diazabicyclo(3.2.2)nonane-4-carboxylate], the “collision cross section in nitrogen” value is 177.7 Å² under setting [1] and 178.5 Å² under setting [4]. Consider `CCC(Cc1c(I)cc(I)c(N)c1I)C(=O)O` (stereo not given) [Iopanoic acid], for which the “collision cross section in nitrogen” value under setting [3] stood at 171.5 Å². Regarding `CCC(=O)/C=C/C1C(C)=CCCC1(C)C` (stereo not given) [Methylionone], under setting [5], the “collision cross section in nitrogen” value was 155.8 Å². As to `OCCOCCOCCOCCOCCO` [Pentaethylene glycol], the “collision cross section in nitrogen” value under setting [2] was 150.1 Å². Turning to `CCCCCCCCCCCC(=O)N(C)CC(=O)O` [N-Dodecanoyl-N-methylglycine], the “collision cross section in nitrogen” value was 175.7 Å² under setting [2] and 170.1 Å² under setting [5]. For the compound `O=C1CCCCCCCCCCCN1` [Azacyclotridecan-2-one], the “collision cross section in nitrogen” value under setting [1] is recorded as 148.2 Å² and the “collision cross section in nitrogen” value under setting [4] was determined as 148.8 Å². Turning to `CC(=O)OCCN(CCOC(C)=O)c1ccc(N=Nc2ccc([N+](=O)[O-])cc2C#N)cc1` [Disperse Red 82], the “collision cross section in nitrogen” value came to 213.1 Å² under setting [1], 213.3 Å² under setting [4] and 201.3 Å² under setting [2]. Turning to `Oc1cc(O)cc(O)c1` [1,3,5-Trihydroxybenzene dihydrate], the “collision cross section in nitrogen” value under setting [5] was found to be 121.6 Å².

Turning to `O=C(Oc1ccc(O)cc1)c1ccccc1` [4-Hydroxyphenyl benzoate], the “collision cross section in nitrogen” value under setting [5] came to 154.7 Å². On to `O=[N+]([O-])c1ccc(O)cc1C(F)(F)F` [3-(Trifluoromethyl)-4-nitrophenol], for which, under setting [5], the “collision cross section in nitrogen” value is recorded as 128.7 Å². As to `c1ccc2[nH]cnc2c1` [Benzimidazole], the “collision cross section in nitrogen” value under setting [1] amounted to 121 Å² and the “collision cross section in nitrogen” value under setting [4] was 121.8 Å². Taken in the same sequence, the figures for `N#CC(CCc1ccc(Cl)cc1)(Cn1cncn1)c1ccccc1` (stereo not given) were 183.9 Å² and 183.1 Å². With `CCN(Cc1cccnc1)C(=O)c1cccc(Cl)c1[C@]1(C)C(=O)N(Cc2ccc(OC)cc2OC)c2ccc(Cl)cc21`, the “collision cross section in nitrogen” value is reported as 241.2 Å² under setting [4] and 233.4 Å² under setting [2]. Regarding `Cc1cccc(NC(=S)N(C)C)c1` [Methiuron], the “collision cross section in nitrogen” value is, setting by setting: under setting [1], 143.1 Å²; under setting [4], 143.3 Å²; under setting [5], 147.1 Å². For `CC1(C(=O)Nc2ccc(O)c(Cl)c2Cl)CCCCC1` [Fenhexamid], the “collision cross section in nitrogen” value by setting is: under setting [1], 166.7 Å²; under setting [4], 166.4 Å²; under setting [5], 172.6 Å². As for `CCOc1ccc2c(c1)C(C)=CC(C)(C)N2` [Ethoxyquin], the “collision cross section in nitrogen” value is, setting by setting: under setting [1], 153.1 Å²; under setting [4], 153.2 Å².

For the compound `Oc1cccc(-c2ccccc2)c1` [3-Phenylphenol], the “collision cross section in nitrogen” value under setting [5] is on record as 140 Å². Consider `CCOC(=O)[C@H](C)Oc1ccc(Oc2nc3ccc(Cl)cc3o2)cc1` [Fenoxaprop-(2S)-ethyl], for which the “collision cross section in nitrogen” value was found to be 189.8 Å² under setting [4] and 189 Å² under setting [2]. On to `O=[N+]([O-])O` [Ammonium nitrate], for which the “collision cross section in nitrogen” value under setting [5] worked out at 104.5 Å².

For `CCCCCCCCOC(=O)c1ccccc1O` [Octyl salicylate], the “collision cross section in nitrogen” value under setting [5] is 162.2 Å². On to `Cc1ccc(N(SC(F)(Cl)Cl)S(=O)(=O)N(C)C)cc1` [Tolylfluanid], for which the “collision cross section in nitrogen” value under setting [2] was found to be 177.6 Å². Take `Nc1ccc(NCCO)c([N+](=O)[O-])c1` [HC Red 3]: the “collision cross section in nitrogen” value by setting is: under setting [1], 141.6 Å²; under setting [4], 142.2 Å². Consider `CC#Cc1cc(C)nc(Nc2ccccc2)n1` [Mepanipyrim], for which the “collision cross section in nitrogen” value runs as follows: under setting [1], 152.6 Å²; under setting [4], 153.1 Å²; under setting [3], 147.3 Å²; under setting [5], 160.6 Å². Take `CC(C)Nc1nc(N)nc(Cl)n1` [Desethylatrazine]: the “collision cross section in nitrogen” value reads like this: under setting [1], 139.3 Å²; under setting [4], 139.4 Å². For `C[C@]12CCC(=O)C(O)=C1CC[C@@H]1[C@@H]2CC[C@]2(C)C(=O)CC[C@@H]12` [4-Hydroxyandrostenedione], under setting [5], the “collision cross section in nitrogen” value is reported as 180 Å². For the compound `c1cnc2c(n1)CCCC2` [5,6,7,8-Tetrahydroquinoxaline], the “collision cross section in nitrogen” value under setting [1] is listed as 126.6 Å².

As for `Cn1c(=S)[nH]c2ccccc21` [1-Methyl-1,3-dihydro-2H-benzimidazole-2-thione], the “collision cross section in nitrogen” value amounted to 130.7 Å² under setting [1], 130.9 Å² under setting [4], 127.9 Å² under setting [3] and 131.4 Å² under setting [5]. `COc1ccc2cc(S(=O)(=O)N[C@H](CC(=O)N[C@H](Cc3ccc(CN4[C@H](C)CCC[C@@H]4C)cc3)C(=O)N(C)C(C)C)c3ccc4c(c3)OCO4)ccc2c1`: the “collision cross section in nitrogen” value was 266.1 Å² under setting [1], 267 Å² under setting [4], 277.4 Å² under setting [2] and 271.5 Å² under setting [5]. With `O=C(O)c1ccccc1C(=O)O` [Monopotassium phthalate], the “collision cross section in nitrogen” value under setting [5] stood at 127.6 Å². Regarding `Nc1c(S(=O)(=O)O)cc(Br)c2c1C(=O)c1ccccc1C2=O`, the “collision cross section in nitrogen” value under setting [5] came to 169.4 Å². In the case of `CC1=Nc2ccc3ccccc3c2C1(C)C` [1,1,2-Trimethyl-1H-benzo[e]indole], the “collision cross section in nitrogen” value is recorded as 145.8 Å² under setting [1] and 146.7 Å² under setting [4].
